# In patent publication US6326402A, “Methods for treating viral infections using a compound capable of inhibiting microtubules” (Octamer, Inc., priority 1998, dated 2001):
# “Also recorded” adds a separate entry of the source. Where two headings read alike, the source gives them in different places.
# Legend:
# [1] = test system: HIV-1 (strains HIV-, 89.6 and HIV-1 SF162); experiment: HIV replication in stimulated human lymphocytes (reverse transcriptase assay); assay type: cell-based, HIV-1 in human lymphocytes
# Protocol: Inhibition of HIV replication in human white cells by DIME
# Lymphocytes were obtained from the Sacramento Blood Bank. After stimulation of cells with phytohaemagglutinine for 3 days, cells were exposed to varying concentrations of DIME (see abscissa of FIG. 1) and incubated for 2 hours at 37° C., 5% CO2, followed by the addition of 3.2×10^5 TCID50 HIV-1 viruses (strains HIV-, 89.6 and HIV-1 SF162). Viral growth was allowed to proceed for 3 days.
# (§1) Nocodazole is a well known antitubulin drug. It is highly toxic. Thus, we established a concentration that is relatively harmless to human white cells, i.e. between 0.1 and 1 μM. At […] , nocodazole depressed HIV production by 40% thereby simulating the action of DIME. However DIME is completely nontoxic up to about 320 μM.
# [2] = Toxicity to human white cells; assay type: cell-based; details: white blood cells
# Protocol: as §1
# human white cells = details: cited from earlier work
# viral replication = experiment: Anti-viral activity of DIME analogues and homologues (cellular assays and in vivo); assay type: cell-based
# [3] = test system: uptake of iodine into the thyroid; details: cited from earlier work
# tadpole metamorphosis = details: as determined by tadpole metamorphosis; cited from earlier work
# [4] = test system: non-malignant mouse pituitary adenoma; details: in vivo; cited from earlier work
# HIV harboring cells = assay type: in vitro ADME, human
# [5] = Toxicity, daily oral dosing of nude mice; assay type: in vivo; details: 1 g/kg daily, 12-15 days
# Protocol: Ten nude mice were administered a daily oral dose of ^14 C-labeled DIME (Compound 1) (1.0 g/kg, 0.1 ml, in corn oil) for a period of 12-15 days.
# [6] = Serum half-life and bioavailability of 14C-labeled DIME in mice; assay type: in vivo
# Protocol: Mice were orally dosed with 126 mg/kg 14C-labeled DIME (Compound 1). After dosing, blood sampling times were 15 and 30 minutes and 1, 2, 4, 6, 8 and 24 hours. Aliquots (50 μL) of blood were assayed in a liquid scintillation counter and data expressed as microgram-equivalents per mL.
# The blood level data were analyzed by the RSTRIP method (Micromath, Salt Lake City, Utah). Parallel groups of mice were dosed intravenously with 24.5 mg/kg 14C-labeled DIME and blood sampling times were 10, 20 and 30 minutes and 1, 2, 4, 6 and 8 hours.
# [7] = test system: MDA-MB-231 (human mammary cancer) cells; experiment: MDA-MB-231 xenografts in nude mice, tumor volume; assay type: in vivo, human tumor xenograft in nude mice
# Text: The ability of human tumors to grow as xenografts in athymic mice (e.g., nude mice) provides a useful in vivo model for studying the biological response to therapies for human tumors. Since the first successful xenotransplantation of human tumors into athymic mice ([…] et al., 1969, Acta Pathol. Microbial. Scand. 77:758-760), many different human tumor cell lines (e.g., mammary, lung, genitourinary, gastrointestinal, head and neck, glioblastoma, bone and malignant melanomas) have been successfully transplanted and grown into nude mice. Human mammary tumor cell lines, including MCF-7, ZR75-1 and MDA-MB-23 1, have been established as subcutaneous grafts in nude mice (Warri et al., 1991, Intl. J. Cancer 49:616-23; Ozzello et al., 1980, Eur. J. Cancer 16:553-559; Osbourne et al., 1985, Cancer Res. 45:584-590; Siebert et al., 1983, Cancer Res. 43:2223-2239). […] Experimental Protocol MDA-MB-231 (human mammary cancer) cells were obtained from American Type Culture Collection (Rockville, Md.) and maintained in the recommended growth media. Twenty nude mice were each inoculated subcutaneously with MDA-MB-231 cells (10^6 cells/100 […]). To one group of ten mice, DIME was administered by gavage (250 mg/kg, 10 mL/kg in corn oil) once […] per day, 5 days per week, for a total of 32 days. The other (control) group of ten mice was given administered vehicle only according to the same dosing schedule. Tumors were measured twice weekly using a Vernier caliper, and the mean tumor volume was determined at each time point. Comparisons between groups were made using an unpaired, two-tailed t-test and the results were analyzed using analysis of variance.
# tubulin [8] = details: cited from earlier work
# tubulin [9] = details: cited from earlier work; remark: listed apart in the source
# apoptosis = details: disruption of microtubules; cited from earlier work
# tumor cells = details: cited from earlier work
# human cancer cells = details: relative to DIME; U.S. Ser. Nos. 08/655,267 and 08/833,272; cited from earlier work
# [10] = compared with vincristine; cited from earlier work
# [11] = test system: Ras and apoptosis-regulating kinases (ASK1), JNK pathway, MEKK1/SEK1 and c-Jun/AP-1; details: cited from earlier work
structure (smiles),measurement,setting,value
"COC(=O)Nc1nc2ccc(C(=O)c3cccs3)cc2[nH]1 [Nocodazole, reference compound]",inhibition at 0.1 µM,"[1]; Human immunodeficiency virus 1, Lymphocyte, 72 h, read-out: depression of HIV production",40%
same,MNTC,[2],0.1 to 1 µM
same,toxicity (general statement),human white cells,highly toxic
"CCCOc1ccc(Oc2c(I)cc(C(=O)OC)cc2I)cc1 [Compound 3, Methyl 3,5-diiodo-4-(4'-n-propoxyphenoxy)benzoate]",anti-viral activity,viral replication,inactive
"NC(Cc1cc(I)c(Oc2cc(I)c(O)c(I)c2)c(I)c1)C(=O)O (stereo not shown) [thyroxine, reference compound]",suppression of iodine uptake by the thyroid,"[3]; rat, in vivo",suppresses uptake of iodine by the thyroid
same,metabolic or cell differentiating activity,tadpole metamorphosis,induces cell differentiation
same,growth inhibition of non-malignant mouse pituitary tumor,[4],depress growth
"COC(=O)c1cc(I)c(Oc2ccc(OC)cc2)c(I)c1 [DIME, Methyl 3,5-diiodo-4-(4'-methoxyphenoxy)benzoate]",reverse transcriptase activity in cell supernatant as a function of DIME concentration (FIG. 1),"[1]; cpm, 2 h preincubation, viral growth 3 days","progressively diminishes as a function of DIME concentration; also recorded: decreases with increased ""DIME"" concentration"
same,"inhibition of HIV replication in human lymphocytes, concentration compared with microtubule disruption in tumor cells",[1]; human lymphocytes,at the same concentration as it disrupts microtubules in tumor cells
same,MNTC,"[2]; up to about, read-out: concentration up to which completely nontoxic",~320 µM
same,DIME uptake by HIV infected cells,HIV harboring cells,significant drug uptake
same,ill effects on daily oral dosing,[5],No ill effects
same,i.v. serum half-life (t1/2),"[6]; i.v., 24.5 mg/kg",about 4 hours
same,"area under the blood concentration-time curve, intravenous","[6]; intravenous, 24.5 mg/kg, mice, 14C-labeled DIME",156 µg·h/mL
same,half-life (t1/2),"[6]; mice, 14C-labeled DIME, 126 mg/kg oral, 24.5 mg/kg i.v.",2 to 2.5 h
same,"area under the blood concentration-time curve, oral","[6]; oral, 126 mg/kg, mice, 14C-labeled DIME",665.28 µg·h/mL
same,half-life in serum,"[6]; serum, route and species not stated",about 4 hours
same,MDA-MB-231 tumor volume Day 14 ± SEM,"[7]; 250 mg/kg by gavage, 5 days per week, control 284.6 ± 42.0, p = 0.06",172.0 ± 34.3
same,MDA-MB-231 tumor volume Day 21 ± SEM,"[7]; 250 mg/kg by gavage, 5 days per week, control 622.2 ± 58.1, p = 0.02",285.7 ± 62.4
same,MDA-MB-231 tumor volume Day 28 ± SEM,"[7]; 250 mg/kg by gavage, 5 days per week, control 979.0 ± 154, p = 0.01",430 ± 85.6
same,MDA-MB-231 tumor volume Day 32 ± SEM,"[7]; 250 mg/kg by gavage, 5 days per week, control 1176.6 ± 222.4, p = 0.01",543.8
same,"% decrease of tumor volume, Day 14","[7]; 250 mg/kg, vs vehicle control",40%
same,"% decrease of tumor volume, Day 21","[7]; 250 mg/kg, vs vehicle control",54%
same,"% decrease of tumor volume, Day 28","[7]; 250 mg/kg, vs vehicle control",56%
same,"% decrease of tumor volume, Day 32","[7]; 250 mg/kg, vs vehicle control",54%
same,reduction of malignant tumor growth,[7]; non-optimized treatment regimen,significant reduction of malignant tumor growth
same,anti-viral activity,viral replication,highly active
same,DIME uptake by normal or stimulated white cells,human lymphocytes,do not take up significant quantities
same,binding to microtubules,tubulin [8]; shown experimentally,binding to cellular microtubules
same,inhibition of tubulin polymerization,tubulin [9],inhibition of tubulin polymerization
same,inhibition of uptake of iodine into the thyroid,"[3]; rats, as compared to thyroxine",15%
same,metabolic or cell differentiating activity,tadpole metamorphosis,no significant metabolic or cell differentiating activity
same,growth inhibition of non-malignant mouse pituitary tumor,[4],no inhibitory activity
same,induction of apoptosis,apoptosis,induces apoptosis
same,permeation into tumor cells in vivo,tumor cells,selective permeation into tumor cells in vivo
"COC(=O)c1cc(I)c(Oc2ccc(OC)cc2Cl)c(I)c1 [Compound 14, Methyl 3,5-diiodo-4-(2'-chloro-4'methoxyphenoxy)benzoate]",maximal inhibitory action on the growth of human cancer cells as compared to DIME,human cancer cells,about 25%
"CC[C@]1(O)C[C@@H]2CN(CCc3c([nH]c4ccccc34)[C@@](C(=O)OC)(c3cc4c(cc3OC)N(C)[C@H]3[C@@](O)(C(N)=O)[C@H](O)[C@]5(CC)C=CCN6CC[C@]43[C@@H]65)C2)C1 [vindesine, 4-desacetyl vinblastine C-3 carboxamide]",neurotoxicity in humans,[10],less neurotoxicity than does vincristine
"CC[C@]1(O)C[C@H]2CN(CCc3c([nH]c4ccccc34)[C@@](C(=O)OC)(c3cc4c(cc3OC)N(C=O)[C@H]3[C@@](O)(C(=O)OC)[C@H](OC(C)=O)[C@]5(CC)C=CCN6CC[C@]43[C@@H]65)C2)C1 [vincristine, reference compound]",KD vs tubulin relative to DIME,"tubulin [8]; may be, relative to DIME",thousand-fold higher
CC(=O)O[C@H]1C(=O)[C@@]2(C)[C@H]([C@H](OC(=O)c3ccccc3)[C@]3(O)C[C@H](OC(=O)[C@H](O)[C@@H](NC(=O)c4ccccc4)c4ccccc4)C(C)=C1C3(C)C)[C@]1(OC(C)=O)CO[C@@H]1C[C@@H]2O [taxol],activation of kinase pathways,[11],"can activate both Ras and apoptosis-regulating kinases (ASK1), pathways"
"CCOC(=O)c1cc(I)c(Oc2ccc(OC)cc2)c(I)c1 [Compound 5, Ethyl 3,5-diiodo-4-(4'-methoxyphenoxy)benzoate]",anti-viral activity,viral replication,inactive
